Calls of active or inactive are those of the source.

Assay [1] can be described thus: A cytotoxicity screen of small molecule inhibitors of the PhoP region in Salmonella typhi identified in the primary screen. [Related pubchem assays: 1850, 1864, 1985 ]. It is filed as functional.
The target in assay [2] is Transitional endoplasmic reticulum ATPase (Homo sapiens, UniProt P55072, C522A). Nature of the assay: C522A mutant p97 ATPase inhibitors, dose response, counter-screen for p97 inhibitor project, biochemical, luminescence (AID 1544). Background: A counterscreen serves to expose hits that act by an unwanted route or on another target.
The target of assay [3] is Transitional endoplasmic reticulum ATPase (Homo sapiens, UniProt P55072). Nature of the assay: p97 ATPase inhibitors, dose response, biochemical (AID 1534).
Assay [4] deals with Vero. Nature of the assay: cells. It is filed as functional, cell-based. As to conditions: Chlorocebus sabaeus.
Assay [5] concerns the target Photoreceptor-specific nuclear receptor (Homo sapiens, UniProt Q9Y5X4). Type of assay: functional.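 Note: potency for compounds that break the NR2E3 corepressor complex and count as activators.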
In assay [6] the target is Large T antigen (Simian virus 40, UniProt P03070). It is filed as functional, Betapolyomavirus macacae.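 Note: Confirmatory-stage PubChem screen for compounds that inhibit SV40 T antigen.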
Assay [7] has as its target Peroxisome proliferator-activated receptor gamma/Nuclear receptor corepressor 2 (Homo sapiens, UniProt P37231+Q9Y618). Type of assay: functional.
The target of assay [8] is Intestinal-type alkaline phosphatase (Mus musculus, UniProt P24822). Nature of the assay: PubChem AID 488874. Type of assay: functional.
In assay [9] the target is T1, Intestinal-type alkaline phosphatase (Homo sapiens, UniProt P09923). The experiment in a line: human IAP inhibitors, dose response, biochemical, luminescent, uHTS hits, set 2 (AID 488793). It is filed as functional.
Assay [10] has as its target T1, Intestinal-type alkaline phosphatase. Nature of the assay: Dose Response confirmation of uHTS hits from a small molecule inhibitors of human intestinal alkaline phosphatase via a luminescent assay. [Related pubchem assays (depositor defined):AID2544, AID2574]. It is filed as functional.
Assay [11] concerns the target T2, Alkaline phosphatase, tissue-nonspecific isozyme (Homo sapiens, UniProt P05186).
T2 sequence (P05186 whole entry): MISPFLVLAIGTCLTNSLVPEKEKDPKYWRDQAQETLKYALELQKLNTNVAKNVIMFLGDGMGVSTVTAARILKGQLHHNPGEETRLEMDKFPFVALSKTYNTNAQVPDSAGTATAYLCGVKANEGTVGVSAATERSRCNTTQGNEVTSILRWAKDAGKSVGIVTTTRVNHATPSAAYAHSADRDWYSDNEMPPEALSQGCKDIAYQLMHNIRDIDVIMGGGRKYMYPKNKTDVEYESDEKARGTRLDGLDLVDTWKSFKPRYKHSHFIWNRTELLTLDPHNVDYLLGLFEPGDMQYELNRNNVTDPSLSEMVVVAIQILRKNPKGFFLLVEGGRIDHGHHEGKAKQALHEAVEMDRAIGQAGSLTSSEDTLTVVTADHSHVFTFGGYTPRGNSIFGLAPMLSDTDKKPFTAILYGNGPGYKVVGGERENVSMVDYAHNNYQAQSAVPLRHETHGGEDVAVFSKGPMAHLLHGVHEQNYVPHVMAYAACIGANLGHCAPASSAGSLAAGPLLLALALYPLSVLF
The experiment in a line: TNAP enzyme activators, dose response, selectivity assay for human IAP activator project, biochemical, TNAP isozyme, human IAP uHTS hits (AID 488886).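 Note: potency of compounds raising TNAP activity as a selectivity check on IAP activators.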 It is filed as functional.

In assay [12] the target is T3, Calpain-2 catalytic subunit (Sus scrofa, UniProt P43367).
T3 sequence (P43367 whole entry): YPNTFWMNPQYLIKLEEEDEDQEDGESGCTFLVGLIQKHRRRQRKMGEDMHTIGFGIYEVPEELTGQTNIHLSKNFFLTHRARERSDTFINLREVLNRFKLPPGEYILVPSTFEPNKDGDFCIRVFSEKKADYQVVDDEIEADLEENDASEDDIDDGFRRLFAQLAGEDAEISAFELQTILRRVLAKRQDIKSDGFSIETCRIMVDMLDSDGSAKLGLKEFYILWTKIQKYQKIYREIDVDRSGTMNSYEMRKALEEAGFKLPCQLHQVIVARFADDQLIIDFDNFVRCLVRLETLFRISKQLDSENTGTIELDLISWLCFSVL
Nature of the assay: pig calpain II inhibitor potency, dose response, biochemical, fluorogenic peptide substrate (AID 1420). Type of assay: functional.

Assay [13] in a line: inhibitors of Bluetongue virus cytopathic effect, confirmation, arbovirus, BSR cells (AID 1250).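 Note: protection from viral cytopathic effect measured as cell viability by ATP luminescence.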 Type of assay: functional. (In general: Damage to the host cells serves as the signal in cytopathic effect assays.)
Assay [14] in a line: Luminescence Cell-Based Dose-Confimation HTS to Identify Inhibitors of 5'UTR Stem-Loop Driven Alpha-Synuclein mRNA Translation in H4 Neuroglioblastoma Cells. [Related pubchem assays: 1827 (Project Summary), 1813 (Primary HTS)]. It is filed as functional.
Assay [15] deals with T4, Bcl-2-like protein 10 (Homo sapiens, UniProt Q9HD36).
T4 sequence (Q9HD36 whole entry): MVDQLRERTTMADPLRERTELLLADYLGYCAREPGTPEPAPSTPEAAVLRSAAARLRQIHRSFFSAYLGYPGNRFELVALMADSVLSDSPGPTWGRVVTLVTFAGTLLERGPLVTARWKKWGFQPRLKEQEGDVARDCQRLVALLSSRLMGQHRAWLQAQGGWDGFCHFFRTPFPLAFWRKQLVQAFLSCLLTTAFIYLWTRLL
The experiment in a line: Biochemical TR3 FP assay of Bcl-B inhibitor potency, EC50 (AID 1243). Type of assay: functional.

Assay [16] deals with T5, Eukaryotic translation initiation factor 2-alpha kinase 3 (Homo sapiens, UniProt Q9NZJ5). Nature of the assay: Dose response cell-based high-throughput screening assay to measure PERK inhibition. [Related pubchem assays: 1416 ]. Type of assay: functional.
Assay [17] has as its target T5, Eukaryotic translation initiation factor 2-alpha kinase 3. The experiment in a line: Counterscreen assay for PERK inhibitors: Dose response cell-based high throughput screening assay to measure inhibition of PERK at 6 hours. [Related pubchem assays: 1522, 1416 ]. Type of assay: functional.
In assay [18] the target is Luciferin 4-monooxygenase (Photinus pyralis, UniProt P08659). The experiment in a line: Counter Screen for Luciferase-based Assay Positives. [Related pubchem assays: 620, 618, 411 ].
Assay [19] relates to HT-1080. Nature of the assay: cytotoxicity in HT1080 fibrosarcoma cells, cell-based, fluorescence readout (AID 620). Type of assay: functional. As to conditions: Homo sapiens.
Assay [20] has as its system HEK293. Nature of the assay: inhibitors of LMP1-driven NF-kB reporter, dose response, cell-based, HEK293, luciferase, cherry-pick (AID 588343). Particulars: Homo sapiens. It is filed as functional.
For assay [21], the target named is T6, Bcl-2-related protein A1 (Mus musculus, UniProt Q07440).
T6 sequence (Q07440 whole entry): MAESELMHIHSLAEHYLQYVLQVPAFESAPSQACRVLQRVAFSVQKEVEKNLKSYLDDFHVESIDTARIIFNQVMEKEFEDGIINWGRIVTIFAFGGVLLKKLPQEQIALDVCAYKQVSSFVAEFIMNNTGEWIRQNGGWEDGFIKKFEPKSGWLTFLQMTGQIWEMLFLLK
Nature of the assay: Bfl-1 inhibitors, primary screen, biochemical, fluorescence polarization, FITC-Bid, mouse (AID 432). (Polarisation of emitted light reports the rotation of a fluorescent probe.)

For assay [22], the target named is Protein Rev (Human immunodeficiency virus type 1 group M subtype B (isolate WMJ22)(HIV-1), UniProt P05866). The experiment in a line: HIV-1 Rev-RRE RNA binding disruptors, dose response, biochemical, protein-RNA interaction (AID 842). More on the design: species or system Human immunodeficiency virus 1.
Assay [23] has as its target T6, Bcl-2-related protein A1. The experiment in a line: Bfl-1 inhibitors blocking BH3 peptide binding, confirmation, biochemical, TR-FRET, mouse Bfl-1 (AID 621).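 Note: TR-FRET binding of GST-Bfl-1 to FITC-labelled Bid peptide via terbium antibody.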
In assay [24] the target is Cytochrome P450 3A4 (Homo sapiens, UniProt P08684). As to conditions: Potency.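 Note: confirmatory qHTS run detecting inhibitors and substrates of CYP3A4.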
A short description of assay [25]: inhibitors of firefly luciferase expression or activity, dose response, H4 neuroglioma cells, luminescence (AID 1990). Type of assay: functional, cell-based.
Assay [26] relates to Streptococcus sp. 'group A'. Nature of the assay: growth inhibition of control SK(-) GAS strain, dose response, counter-screen for streptokinase expression inhibitor project, luminescence, kanamycin, BacTiterGlo, confirmation (AID 1900). Type of assay: functional, organism-based. Particulars: read-out: EC50.
A short description of assay [27]: Luminescence Cell-Based Dose Response HTS to Identify Inhibitors of 5'UTR Stem-Loop Driven Prion Protein mRNA Translation in H4 Neuroglioblastoma Cells. [Related pubchem assays: 1827 (Project Summary), 1813 (Primary HTS)]. It is filed as functional.
A short description of assay [28]: inhibitors of SNCA 5'UTR-driven reporter translation, confirmation, H4 neuroglioma cells, luminescence (AID 1988). It is filed as functional, cell-based.
Assay [29] relates to Streptococcus. Nature of the assay: Luminescence Microorganism-Based Dose Response Follow up to Identify Compounds Cytotoxic to Streptococcus. [Related pubchem assays: 1677 (Project Summary), 1915, 1914, 1902 (Retest at Dose), 1900 (Counter Screen), 1662 (Primary HTS)]. Type of assay: functional, organism-based.
Assay [30] deals with T7, Streptokinase A (Streptococcus pyogenes serotype M1, UniProt P10520).
T7 sequence (P10520 whole entry): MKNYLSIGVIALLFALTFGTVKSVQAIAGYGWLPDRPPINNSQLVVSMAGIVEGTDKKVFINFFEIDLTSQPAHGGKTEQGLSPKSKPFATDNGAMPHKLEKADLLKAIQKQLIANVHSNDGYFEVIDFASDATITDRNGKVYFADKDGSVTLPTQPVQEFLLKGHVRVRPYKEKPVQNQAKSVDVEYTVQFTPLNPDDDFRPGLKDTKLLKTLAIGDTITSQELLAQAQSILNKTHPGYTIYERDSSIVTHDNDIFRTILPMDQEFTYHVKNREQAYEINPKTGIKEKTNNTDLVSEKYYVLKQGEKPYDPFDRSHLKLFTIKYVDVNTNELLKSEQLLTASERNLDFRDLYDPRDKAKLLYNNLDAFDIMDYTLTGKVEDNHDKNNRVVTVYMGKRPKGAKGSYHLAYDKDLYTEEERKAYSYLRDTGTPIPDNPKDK
Nature of the assay: S. pyogenes streptokinase expression inhibitors, potency, dose response, plasminogen activation absorbance, OD405 (AID 1914).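 Note: secreted streptokinase activity via plasminogen activation per viability signal from cell pellet.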 It is filed as functional, Streptococcus pyogenes M1 GAS.

The subject of assay [31] is Streptococcus. Nature of the assay: Group A Streptococcus viability loss, dose response, counter-screen for streptokinase expression inhibitor project, luminescence, BacTiterGlo (AID 1915).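 Note: potency for reduction of bacterial viability or growth.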 Type of assay: functional, organism-based.
The target in assay [32] is Mucolipin-3 (Homo sapiens, UniProt Q8TDD5). Nature of the assay: Dose response cell-based high-throughput screening assay for agonists of the transient receptor potential channel ML3 (TRPML3). [Related pubchem assays: 1526, 1424, 1448 ]. Type of assay: functional.
For assay [33], the target named is Ion channel NompC (Danio rerio, UniProt Q7T1G6). Nature of the assay: Fluorescence counterscreen assay for TRPML3 agonists: dose response cell-based high-throughput screening assay to identify agonists of the transient receptor potential channel N1 (TRPN1). [Related pubchem assays: 1526, 1424, 1448 ]. Type of assay: functional.
Chain of Ion channel NompC (Q7T1G6 whole entry): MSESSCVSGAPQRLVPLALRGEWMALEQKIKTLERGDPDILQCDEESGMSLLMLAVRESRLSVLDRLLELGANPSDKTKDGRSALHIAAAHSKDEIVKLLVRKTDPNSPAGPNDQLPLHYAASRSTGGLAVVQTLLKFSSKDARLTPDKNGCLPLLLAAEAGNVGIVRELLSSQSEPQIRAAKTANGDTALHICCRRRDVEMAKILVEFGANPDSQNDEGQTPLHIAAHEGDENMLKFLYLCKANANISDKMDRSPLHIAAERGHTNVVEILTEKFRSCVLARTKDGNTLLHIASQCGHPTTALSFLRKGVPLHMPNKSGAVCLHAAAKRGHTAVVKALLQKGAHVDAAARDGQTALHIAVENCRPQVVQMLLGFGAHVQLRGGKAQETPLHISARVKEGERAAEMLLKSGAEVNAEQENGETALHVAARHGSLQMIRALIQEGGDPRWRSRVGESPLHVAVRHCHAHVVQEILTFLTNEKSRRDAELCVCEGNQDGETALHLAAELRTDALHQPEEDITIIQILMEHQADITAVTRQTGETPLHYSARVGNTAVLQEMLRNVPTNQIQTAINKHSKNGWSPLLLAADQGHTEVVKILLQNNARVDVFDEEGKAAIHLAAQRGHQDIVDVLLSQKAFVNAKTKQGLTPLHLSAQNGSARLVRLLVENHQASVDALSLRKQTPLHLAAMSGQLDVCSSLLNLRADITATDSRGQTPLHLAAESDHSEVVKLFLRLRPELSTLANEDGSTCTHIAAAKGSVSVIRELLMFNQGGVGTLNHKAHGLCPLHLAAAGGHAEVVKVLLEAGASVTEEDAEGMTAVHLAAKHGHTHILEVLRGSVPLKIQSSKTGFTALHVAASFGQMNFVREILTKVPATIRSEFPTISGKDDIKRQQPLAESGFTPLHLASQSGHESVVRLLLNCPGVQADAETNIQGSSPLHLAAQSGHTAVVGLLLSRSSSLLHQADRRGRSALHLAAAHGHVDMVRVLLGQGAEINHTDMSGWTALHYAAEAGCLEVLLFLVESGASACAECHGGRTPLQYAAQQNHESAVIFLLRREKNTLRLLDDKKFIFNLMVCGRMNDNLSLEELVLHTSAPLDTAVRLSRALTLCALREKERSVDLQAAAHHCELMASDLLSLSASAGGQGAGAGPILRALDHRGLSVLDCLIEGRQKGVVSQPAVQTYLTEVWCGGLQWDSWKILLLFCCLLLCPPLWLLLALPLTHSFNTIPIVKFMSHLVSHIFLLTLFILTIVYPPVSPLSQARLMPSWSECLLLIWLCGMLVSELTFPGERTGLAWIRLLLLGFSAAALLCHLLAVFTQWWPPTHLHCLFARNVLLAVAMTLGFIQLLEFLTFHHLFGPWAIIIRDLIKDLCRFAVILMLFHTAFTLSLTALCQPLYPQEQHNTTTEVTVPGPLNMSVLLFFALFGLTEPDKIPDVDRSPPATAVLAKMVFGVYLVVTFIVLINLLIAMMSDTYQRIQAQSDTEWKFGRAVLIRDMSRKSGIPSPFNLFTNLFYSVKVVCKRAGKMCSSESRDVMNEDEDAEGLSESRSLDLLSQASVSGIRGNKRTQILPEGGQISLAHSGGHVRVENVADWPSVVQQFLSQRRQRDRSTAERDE

T5 sequence (Q9NZJ5 whole entry): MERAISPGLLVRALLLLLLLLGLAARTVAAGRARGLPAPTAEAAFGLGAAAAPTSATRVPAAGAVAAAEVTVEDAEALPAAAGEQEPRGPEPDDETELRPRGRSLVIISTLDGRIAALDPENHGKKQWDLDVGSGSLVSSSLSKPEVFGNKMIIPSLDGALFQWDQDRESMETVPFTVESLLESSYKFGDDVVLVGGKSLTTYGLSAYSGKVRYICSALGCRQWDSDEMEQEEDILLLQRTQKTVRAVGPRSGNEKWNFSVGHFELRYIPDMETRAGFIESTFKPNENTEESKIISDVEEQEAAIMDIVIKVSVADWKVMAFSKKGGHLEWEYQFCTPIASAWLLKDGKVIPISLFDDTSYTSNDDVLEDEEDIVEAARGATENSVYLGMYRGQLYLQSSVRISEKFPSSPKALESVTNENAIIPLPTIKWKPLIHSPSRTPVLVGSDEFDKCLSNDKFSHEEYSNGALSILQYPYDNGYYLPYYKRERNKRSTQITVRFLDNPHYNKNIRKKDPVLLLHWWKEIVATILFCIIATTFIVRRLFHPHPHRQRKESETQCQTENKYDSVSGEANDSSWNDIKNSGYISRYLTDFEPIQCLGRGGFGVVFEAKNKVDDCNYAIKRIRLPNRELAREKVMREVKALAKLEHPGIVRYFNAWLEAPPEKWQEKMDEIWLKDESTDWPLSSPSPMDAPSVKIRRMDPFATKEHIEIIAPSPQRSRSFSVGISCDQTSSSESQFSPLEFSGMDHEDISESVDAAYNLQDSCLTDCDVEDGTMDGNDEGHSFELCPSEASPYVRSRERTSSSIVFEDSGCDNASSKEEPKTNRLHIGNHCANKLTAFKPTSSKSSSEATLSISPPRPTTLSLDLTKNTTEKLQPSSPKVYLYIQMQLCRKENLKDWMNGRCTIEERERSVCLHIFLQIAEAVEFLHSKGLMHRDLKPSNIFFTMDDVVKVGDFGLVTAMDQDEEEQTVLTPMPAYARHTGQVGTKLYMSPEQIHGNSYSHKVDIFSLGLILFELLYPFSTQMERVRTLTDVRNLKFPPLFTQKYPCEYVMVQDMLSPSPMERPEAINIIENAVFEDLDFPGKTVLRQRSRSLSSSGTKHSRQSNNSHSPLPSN
T1 sequence (P09923 whole entry): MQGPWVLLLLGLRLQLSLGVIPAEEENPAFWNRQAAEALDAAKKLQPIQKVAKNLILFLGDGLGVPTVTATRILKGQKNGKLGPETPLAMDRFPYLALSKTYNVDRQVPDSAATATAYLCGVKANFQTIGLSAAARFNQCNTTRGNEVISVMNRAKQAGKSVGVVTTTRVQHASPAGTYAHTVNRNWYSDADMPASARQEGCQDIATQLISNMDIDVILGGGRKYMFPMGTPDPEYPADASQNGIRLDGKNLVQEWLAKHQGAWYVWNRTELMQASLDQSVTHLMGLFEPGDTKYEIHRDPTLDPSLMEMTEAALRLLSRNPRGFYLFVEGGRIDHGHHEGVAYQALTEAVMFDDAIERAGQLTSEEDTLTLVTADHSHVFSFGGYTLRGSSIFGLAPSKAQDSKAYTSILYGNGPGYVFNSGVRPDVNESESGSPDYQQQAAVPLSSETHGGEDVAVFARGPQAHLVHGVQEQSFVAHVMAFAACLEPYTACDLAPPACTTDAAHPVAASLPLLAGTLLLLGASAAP
Chain of Transitional endoplasmic reticulum ATPase (Homo sapiens, UniProt P55072, C522A) (P55072 2-806 C522A limits assumed): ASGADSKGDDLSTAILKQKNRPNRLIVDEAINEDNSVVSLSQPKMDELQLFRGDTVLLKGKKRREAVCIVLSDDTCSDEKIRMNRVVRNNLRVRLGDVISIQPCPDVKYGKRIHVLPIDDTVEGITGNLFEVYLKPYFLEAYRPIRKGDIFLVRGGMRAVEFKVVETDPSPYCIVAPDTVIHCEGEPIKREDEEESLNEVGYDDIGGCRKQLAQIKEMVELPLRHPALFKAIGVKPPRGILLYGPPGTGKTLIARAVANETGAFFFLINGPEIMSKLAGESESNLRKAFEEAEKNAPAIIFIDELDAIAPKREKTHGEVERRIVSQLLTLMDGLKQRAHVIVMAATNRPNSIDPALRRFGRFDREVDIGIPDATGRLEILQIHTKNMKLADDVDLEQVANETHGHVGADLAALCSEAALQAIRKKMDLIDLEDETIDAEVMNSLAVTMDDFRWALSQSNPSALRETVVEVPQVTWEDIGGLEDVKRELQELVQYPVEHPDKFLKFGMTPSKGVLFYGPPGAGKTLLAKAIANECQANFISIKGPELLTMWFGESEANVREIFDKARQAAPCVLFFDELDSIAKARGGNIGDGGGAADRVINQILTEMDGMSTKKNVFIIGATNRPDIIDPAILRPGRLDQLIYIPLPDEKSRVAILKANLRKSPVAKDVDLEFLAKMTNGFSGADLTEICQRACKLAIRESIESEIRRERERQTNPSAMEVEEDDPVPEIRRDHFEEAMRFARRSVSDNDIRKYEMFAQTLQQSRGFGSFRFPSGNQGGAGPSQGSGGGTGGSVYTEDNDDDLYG
Chain of Protein Rev (P05866 whole entry): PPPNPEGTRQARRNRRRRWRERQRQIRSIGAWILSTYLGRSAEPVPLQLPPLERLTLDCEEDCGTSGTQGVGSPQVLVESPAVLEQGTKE
Chain of Large T antigen (P03070 whole entry): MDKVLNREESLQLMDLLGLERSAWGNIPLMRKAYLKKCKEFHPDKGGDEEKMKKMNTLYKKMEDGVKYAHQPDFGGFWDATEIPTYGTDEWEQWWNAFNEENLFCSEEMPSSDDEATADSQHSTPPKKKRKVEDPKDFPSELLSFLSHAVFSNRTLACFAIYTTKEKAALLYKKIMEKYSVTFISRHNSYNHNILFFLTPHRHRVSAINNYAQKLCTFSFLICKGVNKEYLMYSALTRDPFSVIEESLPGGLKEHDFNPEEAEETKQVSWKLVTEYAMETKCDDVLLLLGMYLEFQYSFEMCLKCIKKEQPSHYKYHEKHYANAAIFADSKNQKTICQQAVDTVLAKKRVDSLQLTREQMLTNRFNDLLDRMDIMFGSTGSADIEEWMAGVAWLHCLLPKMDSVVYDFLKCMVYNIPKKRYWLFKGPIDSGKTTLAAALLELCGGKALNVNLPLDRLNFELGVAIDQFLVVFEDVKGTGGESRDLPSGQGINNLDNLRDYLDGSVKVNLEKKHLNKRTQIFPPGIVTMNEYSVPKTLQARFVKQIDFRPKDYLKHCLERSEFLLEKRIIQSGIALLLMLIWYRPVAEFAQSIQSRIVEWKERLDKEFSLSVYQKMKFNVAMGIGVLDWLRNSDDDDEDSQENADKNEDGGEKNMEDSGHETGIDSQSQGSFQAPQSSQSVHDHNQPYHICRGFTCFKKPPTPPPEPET

As to `[O-][n+]1onc2c1CCc1[nH]c(-c3ccccc3)nc1-2`, the EC50 in [1] was > 50 µM (active). Moreover, the IC50 in [2] was > 50 µM (not active); in assay [3], > 50 µM (not active); in assay [4], 14 µM (active).
As to `O=c1c2cc(O)c(O)cc2oc2cc(O)c(C3OC(CO)C(O)C(O)C3O)c(O)c12` (centres undefined), the IC50 in assay [5] was > 39.8 µM (not active); in [6], 8.63 µM (active); in [7], > 39.8 µM (not active); in assay [8] it was 14 µM (active); in assay [9], 262 nM (active); in [10] it was 1.19 µM (active). For the same compound, the EC50 in [11] was > 100 µM (inactive).
Turning to `COc1ccc(OC)c(N(CC(=O)N2CCN(c3cc(Cl)ccc3C)CC2)S(C)(=O)=O)c1`, the results for the IC50 in assay [12] and in assay [13] were 11.7 µM (not active) and 38.9 µM (active), respectively.
Turning to `CN(C)c1nc(N)nc(CSc2nnnn2-c2ccccc2)n1`, the EC50 in assay [14] is on record as > 195 µM (not active).
As to `Cc1ccc(C)n1-c1ccc(Br)cc1C(=O)O`, the EC50 in assay [15] is 3.51 µM (active).
With `COc1ccc(/C=C/C(=O)N[C@@H](C)C(=O)O)cc1`, the EC50 in [16] and in [17] was > 55.7 µM (not active) in each case.
Regarding `CC(=O)c1sc(NC(=O)C2COc3ccccc3O2)nc1C` (centres undefined), the EC50 in assay [18] was 3.97 µM (active); in assay [19], > 50 µM (not active). Besides, the AC50 in [20] is 2.85 µM (active).
Turning to `COc1cccc(OC)c1-c1nn2c(-c3cc(-c4ccccc4)n[nH]3)nnc2s1`, the IC50 in assay [21] was 14.1 µM (active); in [22] it was > 79.4 µM (not active); in assay [23], > 100 µM (not active); in assay [12], > 50 µM (not active).
As to `COCCN(CCOC)c1nc(C)nc2c1nc(-c1ccccc1)n2CCN(C)C`, the concentration at half-maximal activity (AC50) in assay [24] was 15.8 µM (inconclusive).
On to `Cc1cccc(C)c1Oc1nc(-c2ccccc2)ncc1S(=O)(=O)c1ccccc1`, for which the EC50 in assay [25] was 13.2 µM (active); in assay [26] it was 44.1 µM (active); in assay [27] it was 29.8 µM (active); in assay [28], 16.9 µM (active); in assay [29], > 500 µM (not active); in assay [30], 3.99 µM (active). Moreover, the EC50 in assay [31] is > 150 µM (not active).
For the compound `COc1ccc(S(=O)(=O)N2CCC(C)CC2)cc1Br`, the EC50 in [32] was 1.82 µM (active); in [33] it was > 29.9 µM (not active).

For orientation: EC50 means the concentration at which the effect is half-maximal. As a reminder, the IC50 is the concentration needed to halve the response being measured. In general, AC50 refers to the concentration giving half of the maximal activity seen.

For the origin of these results see ChEMBL document CHEMBL1201862, “PubChem BioAssay data set” (2004).
